From patent US5919771A, “Urea and thiourea derivatives of glycopeptides” (Eli Lilly and Company, priority 1998, dated 1999)

What was measured:
Assay type in all cases: cell-based
[1] = test system: Streptococcus pyogenes C203; test: MIC, standard broth micro-dilution assay, SPY C203
Protocol: (§1) The antibacterial efficacy of the present compounds is illustrated by Table II. The minimal inhibitory concentrations (MICs) were determined using a standard broth micro-dilution assay.

[2] = test system: Staphylococcus aureus 446; test: MIC, standard broth micro-dilution assay, SA 446
Protocol: as §1

[3] = test system: Staphylococcus aureus 447; test: MIC, standard broth micro-dilution assay, SA 447
Protocol: as §1

[4] = test system: Enterococcus faecium and faecalis (RESISTANT); conditions: geometric mean of 4-6 isolates
Protocol: as §1

[5] = test system: Enterococcus faecium and faecalis (SENSITIVE); conditions: geometric mean of 4-6 isolates
Protocol: as §1

[6] = test system: Staphylococcus haemolyticus 105; test: MIC, standard broth micro-dilution assay, SH 105
Protocol: as §1

[7] = test system: Streptococcus pneumoniae P1; test: MIC, standard broth micro-dilution assay, SPN P1
Protocol: as §1

[8] = test system: Staphylococcus haemolyticus 415; test: MIC, standard broth micro-dilution assay, SH 415
Protocol: as §1

[9] = test system: Staphylococcus epidermidis 270; test: MIC, standard broth micro-dilution assay, SE 270
Protocol: as §1

[10] = test system: Staphylococcus aureus 489; test: MIC, standard broth micro-dilution assay, SA 489
Protocol: as §1

SMILES | Minimal Inhibitory Concentration (MIC) SPY C203 [1] | Minimal Inhibitory Concentration (MIC) SA 446 [2] | Minimal Inhibitory Concentration (MIC) SA 447 [3] | Minimal Inhibitory Concentration (MIC) RESISTANT [4] | Minimal Inhibitory Concentration (MIC) SENSITIVE [5] | Minimal Inhibitory Concentration (MIC) SH 105 [6] | Minimal Inhibitory Concentration (MIC) SPN P1 [7] | Minimal Inhibitory Concentration (MIC) SH 415 [8] | Minimal Inhibitory Concentration (MIC) SE 270 [9] | Minimal Inhibitory Concentration (MIC) SA 489 [10]
CC(C)CC(C(=O)NC1C(=O)NC(CC(N)=O)C(=O)NC2C(=O)NC3C(=O)NC(C(=O)NC(C(=O)O)c4cc(O)cc(O)c4-c4cc3ccc4O)C(OC3CC(C)(N)C(O)C(C)O3)c3ccc(c(Cl)c3)Oc3cc2cc(c3OC2OC(CO)C(O)C(O)C2OC2CC(C)(N)C(O)C(C)O2)Oc2ccc(cc2Cl)C1O)N(C)C(=S)Nc1ccccc1 (centres unmarked) [Example 1, N^LEU -(PHENYLTHIOCARBAMOYL)A82846B] | 2 | 8 | 8 | > 128 | 16 | 64 | 2 | > 64 | 8 | 4
CC(C)C[C@H](C(=O)N[C@H]1C(=O)N[C@@H](CC(N)=O)C(=O)N[C@H]2C(=O)N[C@H]3C(=O)N[C@H](C(=O)N[C@H](C(=O)O)c4cc(O)cc(O)c4-c4cc3ccc4O)[C@H](O[C@H]3C[C@](C)(N)[C@@H](O)[C@H](C)O3)c3ccc(c(Cl)c3)Oc3cc2cc(c3O[C@@H]2O[C@H](CO)[C@@H](O)[C@H](O)[C@H]2O[C@H]2C[C@](C)(NCc3ccc(Cl)cc3)[C@@H](O)[C@H](C)O2)Oc2ccc(cc2Cl)[C@H]1O)N(C)C(=S)Nc1ccccc1 [Example 2, N^LEU -(PHENYLTHIOCARBAMOYL)-N^DISACC -(p-CHLOROBENZYL)A82846B] | 0.125 | 2 | 2 | 128 | 3.4 | 8 | 0.25 | 16 | 4 | 2
CC(C)C[C@H](C(=O)N[C@H]1C(=O)N[C@@H](CC(N)=O)C(=O)N[C@H]2C(=O)N[C@H]3C(=O)N[C@H](C(=O)N[C@H](C(=O)O)c4cc(O)cc(O)c4-c4cc3ccc4O)[C@H](O[C@H]3C[C@](C)(N)[C@@H](O)[C@H](C)O3)c3ccc(c(Cl)c3)Oc3cc2cc(c3O[C@@H]2O[C@H](CO)[C@@H](O)[C@H](O)[C@H]2O[C@H]2C[C@](C)(NCc3ccc(Oc4ccccc4)cc3)[C@@H](O)[C@H](C)O2)Oc2ccc(cc2Cl)[C@H]1O)N(C)C(=S)Nc1ccccc1 [Example 3, N^LEU -(PHENYLTHIOCARBAMOYL)-N^DISACC -(p-PHENOXYBENZYL)-A82846B] | ≤ .06 | 4 | 1 | 16 | 1.7 | 2 |  | 2 | 1 | 2
CC(C)C[C@H](C(=O)N[C@H]1C(=O)N[C@@H](CC(N)=O)C(=O)N[C@H]2C(=O)N[C@H]3C(=O)N[C@H](C(=O)N[C@H](C(=O)O)c4cc(O)cc(O)c4-c4cc3ccc4O)[C@H](O[C@H]3C[C@](C)(N)[C@@H](O)[C@H](C)O3)c3ccc(c(Cl)c3)Oc3cc2cc(c3O[C@@H]2O[C@H](CO)[C@@H](O)[C@H](O)[C@H]2O[C@H]2C[C@](C)(NCc3ccc(-c4ccccc4)cc3)[C@@H](O)[C@H](C)O2)Oc2ccc(cc2Cl)[C@H]1O)N(C)C(=S)Nc1ccccc1 [Example 4, N^LEU -(PHENYLTHIOCARBAMOYL)-N^DISACC -(p-PHENYLBENZYL)A82846B] | ≤ 0.06 | 2 | 1 | 14 | 4 | 2 | 0.125 | 1 | 0.5 | 0.125
CC(C)CC(C(=O)NC1C(=O)NC(CC(N)=O)C(=O)NC2C(=O)NC3C(=O)NC(C(=O)NC(C(=O)O)c4cc(O)cc(O)c4-c4cc3ccc4O)C(OC3CC(C)(N)C(O)C(C)O3)c3ccc(c(Cl)c3)Oc3cc2cc(c3OC2OC(CO)C(O)C(O)C2OC2CC(C)(N)C(O)C(C)O2)Oc2ccc(cc2Cl)C1O)N(C)C(=S)Nc1ccc(Cl)cc1 (centres unmarked) [Example 8, N^LEU -((p-CHLOROPHENYL)-THIOCARBAMOYL)A82846B] |  | 2 | 4 | > 128 | 8 | 16 |  | 64 | 8 | 2
COc1ccc(NC(=S)N(C)C(CC(C)C)C(=O)NC2C(=O)NC(CC(N)=O)C(=O)NC3C(=O)NC4C(=O)NC(C(=O)NC(C(=O)O)c5cc(O)cc(O)c5-c5cc4ccc5O)C(OC4CC(C)(N)C(O)C(C)O4)c4ccc(c(Cl)c4)Oc4cc3cc(c4OC3OC(CO)C(O)C(O)C3OC3CC(C)(N)C(O)C(C)O3)Oc3ccc(cc3Cl)C2O)cc1 (centres unmarked) [Example 9, N^LEU -((p-METHOXYPHENYL)-THIOCARBAMOYL)A82846B] |  | 8 | 8 | > 128 | 21 | 32 |  | 32 | 16 | 4
CC(C)CC(C(=O)NC1C(=O)NC(CC(N)=O)C(=O)NC2C(=O)NC3C(=O)NC(C(=O)NC(C(=O)O)c4cc(O)cc(O)c4-c4cc3ccc4O)C(OC3CC(C)(N)C(O)C(C)O3)c3ccc(c(Cl)c3)Oc3cc2cc(c3OC2OC(CO)C(O)C(O)C2OC2CC(C)(NCc3ccc(Oc4ccccc4)cc3)C(O)C(C)O2)Oc2ccc(cc2Cl)C1O)N(C)C(=S)Nc1ccc(Cl)cc1 (centres unmarked) [Example 10, N^LEU -((p-CHLOROPHENYL)-THIOCARBAMOYL)-N^DISACC -(p-PHENOXYBENZYL)A82846B] |  | 4 | 2 | 9.5 | 1.7 | 1 |  | 2 | 2 | 2
COc1ccc(NC(=S)N(C)C(CC(C)C)C(=O)NC2C(=O)NC(CC(N)=O)C(=O)NC3C(=O)NC4C(=O)NC(C(=O)NC(C(=O)O)c5cc(O)cc(O)c5-c5cc4ccc5O)C(OC4CC(C)(N)C(O)C(C)O4)c4ccc(c(Cl)c4)Oc4cc3cc(c4OC3OC(CO)C(O)C(O)C3OC3CC(C)(NCc4ccc(Oc5ccccc5)cc4)C(O)C(C)O3)Oc3ccc(cc3Cl)C2O)cc1 (centres unmarked) [Example 11, N^LEU -((p-METHOXYPHENYL)-THIOCARBAMOYL)-N^DISACC -(p-PHENOXYBENZYL)A82846B] |  | 4 | 2 | 38 | 2.6 | 1 |  | 2 | 2 | 2
CCCCc1ccc(CNC2(C)CC(OC3C(Oc4c5cc6cc4Oc4ccc(cc4Cl)C(OC4CC(C)(N)C(O)C(C)O4)C4NC(=O)C(NC(=O)C6NC(=O)C(CC(N)=O)NC(=O)C(NC(=O)C(CC(C)C)N(C)C(=S)Nc6ccccc6)C(O)c6ccc(c(Cl)c6)O5)c5ccc(O)c(c5)-c5c(O)cc(O)cc5C(C(=O)O)NC4=O)OC(CO)C(O)C3O)OC(C)C2O)cc1 (centres unmarked) [Example 21, N^LEU -(PHENYLTHIOCARBAMOYL)-N^DISACC -(p-n-BUTYLBENZYL)-A82846B] |  |  |  | 32 | 2.6 |  |  |  |  | 
CC(C)CC(C(=O)NC1C(=O)NC(CC(N)=O)C(=O)NC2C(=O)NC3C(=O)NC(C(=O)NC(C(=O)O)c4cc(O)cc(O)c4-c4cc3ccc4O)C(OC3CC(C)(N)C(O)C(C)O3)c3ccc(c(Cl)c3)Oc3cc2cc(c3OC2OC(CO)C(O)C(O)C2OC2CC(C)(N)C(O)C(C)O2)Oc2ccc(cc2Cl)C1O)N(C)C(=O)Nc1ccccc1 (centres unmarked) [Example 23, N^LEU -(PHENYLCARBAMOYL)A82846B] |  | 4 | 4 | > 128 | 5.3 | 0.5 |  | 64 | 4 | 1
CC(C)CC(C(=O)NC1C(=O)NC(CC(N)=O)C(=O)NC2C(=O)NC3C(=O)NC(C(=O)NC(C(=O)O)c4cc(O)cc(O)c4-c4cc3ccc4O)C(OC3CC(C)(N)C(O)C(C)O3)c3ccc(c(Cl)c3)Oc3cc2cc(c3OC2OC(CO)C(O)C(O)C2OC2CC(C)(NCc3ccc(Oc4ccccc4)cc3)C(O)C(C)O2)Oc2ccc(cc2Cl)C1O)N(C)C(=O)Nc1ccccc1 (centres unmarked) [Example 24, N^LEU -(PHENYLCARBAMOYL)-N^DISACC -(p-PHENOXYBENZYL)A82846B] |  | 2 | 1 | 16 | 0.87 | 0.25 |  | 1 | 1 | 1
